Experimental findings from patent US20230174507A1, “IMIDAZOLE 3-OXIDE DERIVATIVE BASED ACSS2 INHIBITORS AND METHODS OF USE THEREOF” (METABOMED LTD., priority 2020, published 2023) are described below.

For one assay, the target named is T1, human ACSS2 protein (Homo sapiens, UniProt Q9NR19).
T1 construct: purchased OriGene Technologies, Inc
Kind of assay: ACSS2 cell-free activity assay (pyrophosphatase-coupled, Biomol green). The following applies: 10 nM human ACSS2, 90 minutes at 37 C, absorbance at 620 nm; read-out: ACSS2 Biochemical IC50. How it is done: ACSS2 Cell-Free Activity Assay (Cell-Free IC50)
The assay is based on a coupling reaction with Pyrophosphatase: ACSS2 is converting ATP+CoA+Acetate=>AMP+pyrophosphate+Acetyl-CoA (Ac-CoA). Pyrophosphatase converts pyrophosphate, a product of the ACSS2 reaction, to phosphate which can be detected by measuring the absorbance at 620 nm after incubation with the Biomol green reagent (Enzo life Science, BML-AK111).
(§1) Cell Free IC50 Determination:
10 nM of human ACSS2 protein (OriGene Technologies, Inc) was incubated for 90 minutes at 37 C with various compounds' concentrations in a reaction containing 50 mM Hepes pH 7.5, 10 mM DTT, 90 mM KCl, 0.006% Tween-20, 0.1 mg/ml BSA, 2 mM MgCl2, 10 μM CoA, 5 mM NaAc, 300 μM ATP and 0.5 U/ml Pyrophosphatase (Sigma). At the end of the reaction, Biomol Green was added for 30 minutes at RT and the activity was measured by reading the absorbance at 620 nm. IC50 values were calculated using non-linear regression curve fit with 0% and 100% constrains (CDD Vault, Collaborative Drug Discovery, Inc.).

For a further assay, the target named is T2, human ACSS1 protein (Homo sapiens, UniProt Q9NUB1).
T2 construct: purchased MyBioSource
T2 sequence (Q9NUB1 38-689): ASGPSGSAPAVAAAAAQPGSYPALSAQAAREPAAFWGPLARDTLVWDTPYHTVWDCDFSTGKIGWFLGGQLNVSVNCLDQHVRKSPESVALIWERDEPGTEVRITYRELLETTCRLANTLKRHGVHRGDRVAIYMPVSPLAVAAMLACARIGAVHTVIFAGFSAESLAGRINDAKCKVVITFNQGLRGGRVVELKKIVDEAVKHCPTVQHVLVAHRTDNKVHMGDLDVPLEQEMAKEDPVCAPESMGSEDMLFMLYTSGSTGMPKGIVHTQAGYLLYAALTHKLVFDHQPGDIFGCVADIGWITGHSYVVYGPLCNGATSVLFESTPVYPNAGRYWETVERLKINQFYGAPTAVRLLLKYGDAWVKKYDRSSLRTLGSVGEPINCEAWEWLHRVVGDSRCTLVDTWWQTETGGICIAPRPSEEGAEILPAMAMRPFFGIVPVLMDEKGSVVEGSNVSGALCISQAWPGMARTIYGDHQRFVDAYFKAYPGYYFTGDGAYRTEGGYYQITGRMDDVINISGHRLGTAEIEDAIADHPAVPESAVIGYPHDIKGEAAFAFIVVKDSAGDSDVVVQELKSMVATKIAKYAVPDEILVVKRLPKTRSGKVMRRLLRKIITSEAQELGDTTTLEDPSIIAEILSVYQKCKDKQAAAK
Kind of assay: ACSS1 cell-free activity assay (pyrophosphatase-coupled, Biomol green). Format: biochemical. The conditions noted are these: 5 nM human ACSS1, 30 minutes at room temperature, absorbance at 620 nm. How it is done:
ACSS1 Cell-Free Activity Assay (Cell-Free IC50)
The assay is based on a coupling reaction with Pyrophosphatase: ACSS1 is converting ATP+CoA+Acetate=>AMP+pyrophosphate+Acetyl-CoA (Ac-CoA). Pyrophosphatase converts pyrophosphate, a product of the ACSS1 reaction, to phosphate which can be detected by measuring the absorbance at 620 nm after incubation with the Biomol green reagent (Enzo life Science, BML-AK111).
as §1
5 nM of human ACSS1 protein (MyBioSource) was incubated for 30 minutes at room temperature with various compounds' concentrations in a reaction containing 50 mM Hepes pH 7.5, 10 mM DTT, 90 mM KCl, 0.006% Tween-20, 0.1 mg/ml BSA, 2 mM MgCl2, 15 μM CoA, 5 mM NaAc, 300 μM ATP and 0.5 U/ml Pyrophosphatase (Sigma). At the end of the reaction, Biomol Green was added for 30 minutes at RT and the activity was measured by reading the absorbance at 620 nm. IC50 values were calculated using non-linear regression curve fit with 0% and 100% constrains (CDD Vault, Collaborative Drug Discovery, Inc.).

A value given as a limit tells only on which side of the number the result lay.

T1 sequence (Q9NR19 whole entry): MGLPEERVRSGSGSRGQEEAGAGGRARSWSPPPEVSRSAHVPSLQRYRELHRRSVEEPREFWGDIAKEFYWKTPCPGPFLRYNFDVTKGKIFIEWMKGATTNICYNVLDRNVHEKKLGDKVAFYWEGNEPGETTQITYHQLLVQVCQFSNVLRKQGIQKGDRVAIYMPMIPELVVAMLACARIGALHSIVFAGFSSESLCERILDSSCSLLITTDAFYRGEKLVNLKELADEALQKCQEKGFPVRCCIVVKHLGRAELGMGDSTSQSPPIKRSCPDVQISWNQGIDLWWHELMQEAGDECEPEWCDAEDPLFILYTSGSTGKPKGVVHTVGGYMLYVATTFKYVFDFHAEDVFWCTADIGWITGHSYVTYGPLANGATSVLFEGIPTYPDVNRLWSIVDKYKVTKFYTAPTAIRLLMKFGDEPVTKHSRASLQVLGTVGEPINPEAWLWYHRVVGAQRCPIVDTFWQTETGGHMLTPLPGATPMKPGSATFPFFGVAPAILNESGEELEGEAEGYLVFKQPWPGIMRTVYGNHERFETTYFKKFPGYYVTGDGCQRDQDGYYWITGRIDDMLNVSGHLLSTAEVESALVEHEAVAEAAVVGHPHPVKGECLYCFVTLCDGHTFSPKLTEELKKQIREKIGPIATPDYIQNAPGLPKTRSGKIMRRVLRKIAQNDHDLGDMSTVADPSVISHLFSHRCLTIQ

On to `CCC(F)(F)c1cccc(NC(=O)c2c(C)[nH]c(-c3ccc(C(C)C)c(-c4c(C)cccc4C)c3)[n+]2[O-])c1` [Compound 117, 4-((3-(1,1-difluoropropyl)phenyl)carbamoyl)-2-(6-isopropyl-2′,6′-dimethyl-[1,1′-biphenyl]-3-yl)-5-methyl-1H-imidazole 3-oxide], for which the IC50 on human ACSS2 protein lay within 0.001 to 0.03 µM. In addition, the “ACSS1 Biochemical IC50 (nM)” value on human ACSS1 protein is “Inactive”.

In the case of `CCC(F)(F)c1cccc(NC(=O)c2c(C)[nH]c(-c3ccc(OC)c(-c4ncccn4)c3C)[n+]2[O-])c1` [Compound 118, 4-((3-(1,1-difluoropropyl)phenyl)carbamoyl)-2-(4-methoxy-2-methyl-3-(pyrimidin-2-yl)phenyl)-5-methyl-1H-imidazole 3-oxide], the IC50 at human ACSS2 protein was more than 0.03 µM. For the same compound, the “ACSS1 Biochemical IC50 (nM)” value on human ACSS1 protein is “Inactive”.

As to `CCC(F)(F)c1cccc(NC(=O)c2c(C)[nH]c(-c3ccc(OC)c(-c4cccnn4)c3C)[n+]2[O-])c1` [Compound 122, 4-((3-(1,1-difluoropropyl)phenyl)carbamoyl)-2-(4-methoxy-2-methyl-3-(pyridazin-3-yl)phenyl)-5-methyl-1H-imidazole 3-oxide], at human ACSS2 protein, the IC50 was more than 0.03 µM. Also, on human ACSS1 protein, the “ACSS1 Biochemical IC50 (nM)” value was “Inactive”.

For the compound `CCC(F)(F)c1cccc(NC(=O)c2c(C)[nH]c(-c3ccc(OC)c(-c4cnccn4)c3C)[n+]2[O-])c1` [Compound 127, 4-((3-(1,1-difluoropropyl)phenyl)carbamoyl)-2-(4-methoxy-2-methyl-3-(pyrazin-2-yl)phenyl)-5-methyl-1H-imidazole 3-oxide], the IC50 on human ACSS2 protein is more than 0.03 µM. The “ACSS1 Biochemical IC50 (nM)” value at human ACSS1 protein is listed as “Inactive”.

On to `CCC(F)(F)c1cccc(NC(=O)c2c(C)[nH]c(-c3ccc(OC)c(-c4c(C(F)(F)F)cccc4C(F)(F)F)c3)[n+]2[O-])c1` [Compound 128, 4-((3-(1,1-difluoropropyl)phenyl)carbamoyl)-2-(6-methoxy-2′,6′-bis(trifluoromethyl)-[1,1′-biphenyl]-3-yl)-5-methyl-1H-imidazole 3-oxide], for which the IC50 at human ACSS2 protein lay in the range of 0.001 to 0.03 µM. In addition, the “ACSS1 Biochemical IC50 (nM)” value at human ACSS1 protein is recorded as “Inactive”.

With `CCC(F)(F)c1cccc(NC(=O)c2c(C)[nH]c(-c3cc(C)cc(-c4c(C)cccc4C)c3)[n+]2[O-])c1` [Compound 130, 4-((3-(1,1-difluoropropyl)phenyl)carbamoyl)-5-methyl-2-(2′,5,6′-trimethyl-[1,1′-biphenyl]-3-yl)-1H-imidazole 3-oxide], the IC50 on human ACSS2 protein lay within 0.001 to 0.03 µM.

Turning to `Cc1cccc(C)c1-c1cc(-c2c(C)cccc2C)cc(-c2[nH]c(C)c(C(=O)Nc3cccc(C(F)(F)C4CC4)c3)[n+]2[O-])c1` [Compound 132, 4-((3-(cyclopropyldifluoromethyl)phenyl)carbamoyl)-5-methyl-2-(2,2″,6,6″-tetramethyl-[1,1′:3′,1″-terphenyl]-5′-yl)-1H-imidazole 3-oxide], the IC50 on human ACSS2 protein is 0.001 to 0.03 µM. Moreover, the “ACSS1 Biochemical IC50 (nM)” value at human ACSS1 protein is “Inactive”.

`Cc1cccc(C)c1-c1cc(-c2ccccc2)cc(-c2[nH]c(C)c(C(=O)Nc3cccc(C(F)(F)C4CC4)c3)[n+]2[O-])c1` [Compound 133, 4-((3-(cyclopropyldifluoromethyl)phenyl)carbamoyl)-2-(2,6-dimethyl-[1,1′:3′,1″-terphenyl]-5′-yl)-5-methyl-1H-imidazole 3-oxide]: the IC50 at human ACSS2 protein lay in the range of 0.001 to 0.03 µM. Further, the “ACSS1 Biochemical IC50 (nM)” value on human ACSS1 protein was “Inactive”.

Take `Cc1cccc(C)c1-c1cc(-c2[nH]c(C)c(C(=O)Nc3cccc(C(F)(F)C4CC4)c3)[n+]2[O-])cc(C(C)C)c1` [Compound 134, 4-((3-(cyclopropyldifluoromethyl)phenyl)carbamoyl)-2-(5-isopropyl-2′,6′-dimethyl-[1,1′-biphenyl]-3-yl)-5-methyl-1H-imidazole 3-oxide]: the IC50 at human ACSS2 protein lay within 0.001 to 0.03 µM. Besides, the “ACSS1 Biochemical IC50 (nM)” value on human ACSS1 protein is “Inactive”.

Take `Cc1cccc(C)c1-c1cc(Br)cc(-c2[nH]c(C)c(C(=O)Nc3cccc(C(F)(F)C4CC4)c3)[n+]2[O-])c1` [Compound 136, 2-[3-bromo-5-(2,6-dimethylphenyl)phenyl]-N-[3-[cyclopropyl(difluoro)methyl]phenyl]-5-methyl-3-oxido-1H-imidazol-3-ium-4-carboxamide]: the IC50 on human ACSS2 protein was in the range of 0.001 to 0.03 µM. Besides, on human ACSS1 protein, the “ACSS1 Biochemical IC50 (nM)” value is listed as “Inactive”.

Take `COc1ccc(-c2[nH]c(C)c(C(=O)Nc3cccc(C(=O)N4CCCC4)c3)[n+]2[O-])cc1-c1c(C)cccc1C` [Compound 138, 2-[3-(2,6-dimethylphenyl)-4-methoxy-phenyl]-5-methyl-3-oxido-N-[3-(pyrrolidine-1-carbonyl)phenyl]-1H-imidazol-3-ium-4-carboxamide]: on human ACSS2 protein, the IC50 is more than 0.03 µM. In addition, the “ACSS1 Biochemical IC50 (nM)” value at human ACSS1 protein is “Inactive”.

As for `COc1ccc(-c2[nH]c(C)c(C(=O)Nc3cccc(C(=O)N4CCCCC4)c3)[n+]2[O-])cc1-c1c(C)cccc1C` [Compound 139, 2-(6-methoxy-2′,6′-dimethyl-[1,1′-biphenyl]-3-yl)-5-methyl-4-((3-(piperidine-1-carbonyl)phenyl)carbamoyl)-1H-imidazole 3-oxide], the IC50 on human ACSS2 protein was more than 0.03 µM. The “ACSS1 Biochemical IC50 (nM)” value at human ACSS1 protein is given as “Inactive”.

For `CCN(C)C(=O)c1cccc(NC(=O)c2c(C)[nH]c(-c3ccc(OC)c(-c4c(C)cccc4C)c3)[n+]2[O-])c1` [Compound 140, 4-((3-(ethyl(methyl)carbamoyl)phenyl)carbamoyl)-2-(6-methoxy-2′,6′-dimethyl-[1,1′-biphenyl]-3-yl)-5-methyl-1H-imidazole 3-oxide], on human ACSS2 protein, the IC50 is 0.001 to 0.03 µM. On human ACSS1 protein, the “ACSS1 Biochemical IC50 (nM)” value is “Inactive”.

`COCCN(C)C(=O)c1cccc(NC(=O)c2c(C)[nH]c(-c3ccc(OC)c(-c4c(C)cccc4C)c3)[n+]2[O-])c1` [Compound 141, 2-(6-methoxy-2′,6′-dimethyl-[1,1′-biphenyl]-3-yl)-4-((3-((2-methoxyethyl)(methyl)carbamoyl)phenyl)carbamoyl)-5-methyl-1H-imidazole 3-oxide]: the IC50 on human ACSS2 protein was more than 0.03 µM. At human ACSS1 protein, the “ACSS1 Biochemical IC50 (nM)” value is reported as “Inactive”.

As to `CCC(F)(F)c1cccc(NC(=O)c2c(C)[nH]c(-c3ccc(OC)c(-c4ccncn4)c3C)[n+]2[O-])c1` [Compound 144, 4-((3-(1,1-difluoropropyl)phenyl)carbamoyl)-2-(4-methoxy-2-methyl-3-(pyrimidin-4-yl)phenyl)-5-methyl-1H-imidazole 3-oxide], at human ACSS2 protein, the IC50 is more than 0.03 µM. Also, the “ACSS1 Biochemical IC50 (nM)” value on human ACSS1 protein was “Inactive”.

As for `CCC(F)(F)c1cccc(NC(=O)c2c(C)[nH]c(-c3ccc(OC)c(C4CCCCC4)c3)[n+]2[O-])c1` [Compound 145, 2-(3-cyclohexyl-4-methoxyphenyl)-4-((3-(1,1-difluoropropyl)phenyl)carbamoyl)-5-methyl-1H-imidazole 3-oxide], the IC50 at human ACSS2 protein is more than 0.03 µM. Further, the “ACSS1 Biochemical IC50 (nM)” value at human ACSS1 protein is reported as “Inactive”.

For the compound `COc1ccc(-c2[nH]c(C)c(C(=O)Nc3cccc(C(=O)N4CCOCC4)c3)[n+]2[O-])cc1-c1c(C)cccc1C` [Compound 148, 2-(6-methoxy-2′,6′-dimethyl-[1,1′-biphenyl]-3-yl)-5-methyl-4-((3-(morpholine-4-carbonyl)phenyl)carbamoyl)-1H-imidazole 3-oxide], the concentration for half-maximal inhibition (IC50) at human ACSS2 protein is more than 0.03 µM. For the same compound, the “ACSS1 Biochemical IC50 (nM)” value on human ACSS1 protein was “Inactive”.
